{"source": "patent US20260373103A1", "about": "“COMPOSITIONS AND METHODS FOR PREVENTING CARDIOMYOPATHY” (OHIO STATE INNOVATION FOUNDATION, priority 2022, published 2026)", "key": {"[1]": {"test_system": "heart tissue of mt-Keima mice", "assay": "In vivo mitophagy in heart, mt-Keima mice", "set-up": "species or system mouse", "settings": "25 mg/kg/day i.p. for 5 days", "description": "(§1) Fluorescent samples were examined with a Zeiss LSM 780 confocal microscope (Carl Zeiss MicroImaging). As previously described^2, fluorescence of mt-Keima was imaged in two channels via two sequential excitations (458 nm, green; 561 nm, red) and using a 570- to 695-nm emission range. Confocal experiments for parkin translocation were performed using a HeLa cell line stably expressing YFP-Parkin plated on 35 mm coverglass #1.5 chamber dishes (MatTek). These cells were treated for 2 h with DMSO as vehicle control or with A/O. YFP was imaged with a 514-nm excitation and 520- to 570-emission filters. Representative confocal images were processed using Imaris software by contrast linear stretch only. Calculation of mitophagy based on mt-Keima signal was performed using Zeiss ZEN software as previously described^2. The average of four images from each tissue sample was taken, and the values were normalized to the average value seen in the controls, assigned the value of one.\n(§2) The mt-Keima mouse. […] The mice were lightly anesthetized with isoflurane and the ejection fraction, fractional shortening, and ventricular chamber dimensions were determined using 2-D-guided M mode images. Ejection fraction, fractional shortening, ventricular chamber dimensions, and left ventricular mass were calculated automatically using the VevoLAB program. […]"}, "[2]": {"test_system": "Human induced pluripotent stem cell-derived cardiomyocytes", "assay": "Doxorubicin-induced cell death in hiPSC-CMs", "format": "cell-based", "settings": "48 hours, doxorubicin+ST-539"}, "[3]": {"assay": "Tissue concentrations 24 h post-dose", "format": "in vivo, Male C57BL/6 Mice", "description": "ST-539 was dissolved into 1% DMSO in Sesame oil and injected intraperitoneally (i.p.) at doses of 25 mg/kg. Serial blood samples were collected at 0.083, 0.25, 0.5, 1, 2, 4 and 8 hours post dosing. Mice were euthanized at 24 hours post dosing. A terminal blood sample was collected by cardiac puncture followed by harvesting the brain and heart. Transcardial perfusion was performed prior to brain collection. The blood samples were placed in microtubes pretreated with K2EDTA as an anticoagulant and kept on ice until centrifugation. The tissue samples were rinsed using cold distilled water to remove blood, blotted dry, weighed and stored on dry ice until LC/MS/MS analysis. Plasma was transferred into polypropylene tubes or 96-well plates, quick frozen on dry ice, and stored at −70±10 °C until LC/MS/MS analysis."}, "[4]": {"test_system": "liver tissue of mt-Keima mice", "assay": "In vivo mitophagy in liver, mt-Keima mice", "set-up": "species or system mouse", "settings": "25 mg/kg/day i.p. for 5 days", "description": "as §1, §2"}, "[5]": {"test_system": "LC3-II/LC3-I", "assay": "LC3 I/II immunoblotting of heart tissue", "format": "in vivo, mice", "settings": "25 mg/kg/day i.p. for 5 days", "description": "Cells were lysed in RIPA buffer (50 mM Tris-HCl, at pH 8.0; 150 mM NaCl; 1% (vol/vol) Nonidet P-40; 0.5% sodium deoxycholate, 0.1% SDS and protease inhibitor cocktail (Roche)) on ice. Primary antibodies were used at the following concentrations: USP30 (Santa Cruz, sc-515235, 1:200); TOM20 (Cell Signaling Technology, 42406S, 1:1000); TOM40 (Proteintech, 18409-1-AP, 1:1000); NDP52 (Cell Signaling Technology, 60732S, 1:1000); TIM23 (Proteintech, 11123-1-AP, 1:500); LC3A/B (Cell Signaling Technology, 4108S, 1:1000); GAPDH (Cell Signaling Technology, 5175S, 1:1000); PINK1 (Cell Signaling Technology, 6946S, 1:1000); ACTIN (Cell Signaling Technology, 3700S, 1:1000). The membranes were incubated with anti-rabbit (LI-COR, 926-32211, 1:15000) or anti-mouse (LI-COR, 926-68072, 1:15000) IgG secondary antibodies for 1 h at room temperature. Images were captured using the Odyssey system (LI-Cor). One representative blot is shown of three independent experiments.\nas §2"}, "[6]": {"test_system": "HeLa-Parkin and HeLa-Parkin cells expressing USP30", "assay": "Cell proliferation", "format": "cell-based", "settings": "ST-539, 24 hours"}, "[7]": {"test_system": "HeLa cells", "assay": "Mitophagy inducer screen by TOM20 turnover", "format": "cell-based", "settings": "cellular TOM20 turnover assay", "description": "The enzymatic activity of Parkin is to function as an E3 ubiquitin ligase. […] To investigate TOM20 ubiquitination during mitophagy, we treated HeLa cells stably expressing YFP-Parkin (Hela-Parkin) for up to 18 h with both the mitochondrial complex III inhibitor antimycin A and the ATP synthase inhibitor oligomycin (antimycin A/oligomycin/[A/O]; FIG. 1A). […] A/O treatment also results in a decline in the abundance of the OMM protein TOM40 and the inner mitochondrial protein TIM23 (FIG. 1A). […] In this context, increased expression of USP30 blocked the accumulation of ubiquitinated TOM20 and prevented the destruction of this outer mitochondrial protein, as well as TOM40 and TIM23, after A/O treatment (FIG. 1A). We then employed this cellular assay to monitor TOM20 turnover, and analyzed compounds known to be associated with the ubiquitination process for inhibitors of USP30. […] We defined the effects of this chemical using biochemical assays. […] Initially to assess mitophagy in cells, we monitored the degradation of the inner membrane protein, the translocase of the inner membrane 23 (TIM23), by immunoblotting (FIG. 5A). […] USP30's overexpression prevented a reduction in TIM23 and TOM40 levels."}, "[8]": {"settings": "24 Hours Post-dose, 25 mg/kg i.p., mean"}}, "note": "“Also recorded” adds a separate entry of the source.", "data": [{"smiles": "CC(C)(C)NS(=O)(=O)c1cccc2c(NC(=O)C(Cc3ccccc3)NC(=O)c3ccccc3)cccc12", "note": "(stereo not shown) [ST-539]", "values": [{"measurement": "cardiac mitophagy (red mt-Keima signal in heart tissue)", "setting": "[1]", "result": "marked induction of the red signal in the heart tissue; also recorded: efficiently induces cardiac mitophagy"}, {"measurement": "doxorubicin-induced cell death (percent survival of hiPSC-CMs)", "setting": "[2]", "result": "reduces doxorubicin-induced cell death"}, {"measurement": "Brain concentration", "setting": "[3]; [8]", "result": 17.4, "unit": "ng/g"}, {"measurement": "Heart concentration", "setting": "[3]; [8]", "result": 37.0, "unit": "ng/g"}, {"measurement": "ST-539 detected in mouse brain homogenate", "setting": "[3]; 24 h post-dose", "result": "modest concentrations"}, {"measurement": "hepatic mitophagy", "setting": "[4]", "result": "remains unchanged; also recorded: inability of ST-539 to induce hepatic mitophagy"}, {"measurement": "LC3-II/LC3-I ratio in heart", "setting": "[5]", "result": "increase in LC3-II/LC3-I ratio"}, {"measurement": "LC3-II level in heart", "setting": "[5]; *p<0.05", "result": "increased levels of LC3-II"}, {"measurement": "cell proliferation", "setting": "[6]", "result": "maintained"}, {"measurement": "potency as mitophagy inducer in screen", "setting": "[7]", "result": "most potent mitophagy inducer"}]}]}
